In patent publication US12331033B2, “Inhibitors of SARM1” (Disarm Therapeutics, Inc., priority 2020, dated 2025):

Molecular target: SARM1 (ARM-SAM-TIR) (Homo sapiens (Human), UniProt Q6SZW1)
Experiment: ARM-SAM-TIR SARM1 IC50 assay (NADase activity, NAD+ cleavage, RapidFire MS)
Assay type: biochemical
Conditions: ARM-SAM-TIR lysate 5 μg/mL, 2 h pre-incubation, 5 μM NAD+, 2 hr room temperature
Outline: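 Lysate of NRK1-HEK293T cells transfected with full-length ARM-SAM-TIR SARM1 (5 μg/mL final) pre-incubated with compound (1% DMSO) 2 h at room temperature in Dulbecco's PBS. Reaction started with 5 μM NAD+, run 2 hr at room temperature, then stopped with TCA/acetonitrile. NAD+ and ADPR quantified by RapidFire MS.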

SARM1 (ARM-SAM-TIR), sequence (Q6SZW1 other isoform, or with tags, fused parts or gaps): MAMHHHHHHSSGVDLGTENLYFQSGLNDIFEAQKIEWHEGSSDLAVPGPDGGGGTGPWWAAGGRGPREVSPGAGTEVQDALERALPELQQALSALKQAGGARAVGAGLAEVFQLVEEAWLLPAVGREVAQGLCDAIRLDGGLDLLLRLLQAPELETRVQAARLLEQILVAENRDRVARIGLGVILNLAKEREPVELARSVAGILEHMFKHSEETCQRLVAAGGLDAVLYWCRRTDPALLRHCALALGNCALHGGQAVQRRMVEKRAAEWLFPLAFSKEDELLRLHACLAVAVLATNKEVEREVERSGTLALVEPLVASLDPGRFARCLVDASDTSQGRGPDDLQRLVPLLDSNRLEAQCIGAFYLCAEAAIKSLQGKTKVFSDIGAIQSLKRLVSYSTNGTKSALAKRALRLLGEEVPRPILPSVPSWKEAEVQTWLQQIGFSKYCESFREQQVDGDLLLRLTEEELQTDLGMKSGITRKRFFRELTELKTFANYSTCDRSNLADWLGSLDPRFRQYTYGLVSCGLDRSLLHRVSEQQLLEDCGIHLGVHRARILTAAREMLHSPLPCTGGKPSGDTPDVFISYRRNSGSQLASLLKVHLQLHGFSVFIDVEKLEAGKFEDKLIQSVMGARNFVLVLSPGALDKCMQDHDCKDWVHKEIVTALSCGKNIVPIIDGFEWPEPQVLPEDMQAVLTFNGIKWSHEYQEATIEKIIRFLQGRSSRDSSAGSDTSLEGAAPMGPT

Structure (SMILES) | IC50 [µM]
[2H]C([2H])(C(=O)Nc1nnc(-c2ccnnc2)[nH]1)C([2H])([2H])c1ccc(Cl)cc1 [Example 230] | < 5
Cc1c(-c2ccnnc2)n[nH]c1NC(=O)CC1CCOc2cc(Cl)ccc21 (centres unmarked) [Example 231] | < 5
O=C(C[C@H]1CCOc2nc(Cl)ccc21)Nc1nnc(-c2ccncc2)[nH]1 [Example 232] | < 5
O=C(C[C@@H]1CCOc2nc(Cl)ccc21)Nc1nnc(-c2ccncc2)[nH]1 [Example 233] | < 5
O=C(C[C@H]1CCOc2cc(Cl)ncc21)Nc1nnc(-c2ccncc2)[nH]1 [Example 234] | < 5
O=C(C[C@H]1CCOc2cc(Cl)ncc21)Nc1nnc(-c2ccncc2)[nH]1 [Example 235] | 5 to 15
O=C(Nc1cc(-c2ccncc2)n[nH]1)[C@H]1C[C@H](c2ccc(Cl)nc2)C1 [Example 236] | < 5
Cc1c(-c2ccncc2)n[nH]c1NC(=O)[C@H]1C[C@H](c2ccc(Cl)nc2)C1 [Example 237] | < 5
N#Cc1cnccc1-c1cc(NC(=O)CCc2ccc(Cl)cc2)[nH]n1 [Example 238] | < 5
CN(C(=O)CCc1ccc(Cl)nc1)c1cc(-c2ccncc2)n[nH]1 [Example 239] | < 5
Cc1nn(C)c(C)c1OCC(=O)Nc1[nH]nc(-c2ccncc2)c1C [Example 240] | 5 to 15
Cc1c(-c2ccncc2)n[nH]c1NC(=O)Cn1cc(C)c2ccccc21 [Example 241] | 5 to 15
Cc1c(-c2ccncc2)n[nH]c1NC(=O)c1ccc(-n2ccnn2)cc1 [Example 242] | 5 to 15
Cc1c(-c2ccncc2)n[nH]c1NC(=O)CCNC(=O)C1CC1C (centres unmarked) [Example 243] | 5 to 15
CCC(C)c1cc(C(=O)Nc2[nH]nc(-c3ccncc3)c2C)on1 (centres unmarked) [Example 244] | 5 to 15
Cc1c(-c2ccncc2)n[nH]c1NC(=O)CCc1nc2ccccc2s1 [Example 245] | 5 to 15
Cc1c(-c2ccncc2)n[nH]c1NC(=O)CC(C)c1ccc(F)cc1 (centres unmarked) [Example 246] | < 5
Cc1c(-c2ccncc2)n[nH]c1NC(=O)/C=C/c1c(F)cccc1F [Example 247] | 5 to 15
Cc1c(-c2ccncc2)n[nH]c1NC(=O)CCc1cccc(Cl)c1 [Example 248] | < 5
Cc1c(-c2ccncc2)n[nH]c1NC(=O)CCc1cc(F)ccc1F [Example 249] | < 5
Cc1[nH]c(NC(=O)CCc2ccc(Cl)nc2)nc1-c1ccncc1 [Example 250] | < 5
Cc1c(-c2ccncc2)n[nH]c1NC(=O)CCc1nc(C2CC2)no1 [Example 251] | 5 to 15

Structure (SMILES) | IC50 [µM]
Cc1c(-c2ccncc2)n[nH]c1NC(=O)c1ccc(OCC2CC2)cc1 [Example 252] | 5 to 15
Cc1c(-c2ccncc2)n[nH]c1NC(=O)COc1ccc(C#N)cc1 [Example 253] | 5 to 15
Cc1cccc(CS(=O)(=O)Nc2[nH]nc(-c3ccncc3)c2C)c1 [Example 254] | 5 to 15
Cc1c(-c2ccncc2)n[nH]c1NC(=O)c1ccc(OC2CCC2)cc1 [Example 255] | 5 to 15
CCc1c(-c2ccncc2)n[nH]c1NC(=O)CN1CCCc2sccc2C1=O [Example 256] | 5 to 15
Cc1ccc(OCC(=O)Nc2[nH]nc(-c3ccncc3)c2C)cc1 [Example 257] | 5 to 15
Cc1c(-c2ccncc2)n[nH]c1NC(=O)CNC(=O)CC(C)(C)C [Example 259] | 5 to 15
Cc1c(-c2ccncc2)n[nH]c1NC(=O)CCc1ccc(C(F)(F)F)nc1 [Example 261] | < 5
Cc1c(-c2ccncc2)n[nH]c1NC(=O)CCc1ccc(C#N)cc1 [Example 262] | < 5
CNC(=O)Cc1c(-c2ccncc2)n[nH]c1NC(=O)CCc1ccc(Cl)cc1 [Example 263] | < 5
O=C(CCc1ccc(Cl)cc1)Nc1[nH]nc(-c2ccnnc2)c1C1CCC1 [Example 264] | < 5
O=C(CCc1ccc(Cl)nc1)Nc1[nH]nc(-c2ccnnc2)c1C1CCC1 [Example 265] | < 5
O=C(CCc1ccc(Cl)nc1)Nc1[nH]nc(-c2ccncc2)c1F [Example 266] | < 5
O=C(CCc1ccc(Cl)nc1)Nc1cc(-c2cccnc2)n[nH]1 [Example 267] | 5 to 15
Cc1c(-c2ccncc2)n[nH]c1NC(=O)CCc1ccc(F)c(F)c1 [Example 268] | < 5
Cc1c(-c2ccncc2)n[nH]c1NC(=O)COc1ccc(Cl)cc1 [Example 269] | < 5
Cc1c(-c2ccncc2)n[nH]c1NC(=O)CCc1ccc(Cl)c(C#N)c1 [Example 270] | < 5
O=C(CCc1ccc(Cl)nc1)Nc1[nH]nc(-c2ccncc2)c1Cl [Example 271] | < 5
O=C(CCc1ccc(Cl)nc1)Nc1[nH]nc(-c2ccnnc2)c1C1CC1 [Example 272] | < 5
O=C(CCc1ccc(Cl)cc1)Nc1[nH]nc(-c2ccnnc2)c1C1CC1 [Example 273] | < 5
Cc1c(-c2ccncc2)n[nH]c1NC(=O)CCc1ccc(C#N)c(F)c1 [Example 274] | < 5
O=C(Nc1cc(-c2ccncc2)n[nH]1)C(O)Cc1ccc(Cl)cc1 (centres unmarked) [Example 275] | < 5

Structure (SMILES) | IC50 [µM]
O=C(Nc1nnc(-c2ccncc2)[nH]1)N[C@@H]1CCOc2cc(Cl)ncc21 [Example 276] | 5 to 15
O=C(Nc1nnc(-c2ccncc2)[nH]1)N[C@H]1CCOc2cc(Cl)ncc21 [Example 277] | < 5
Cc1c(-c2ccnnc2)n[nH]c1NC(=O)C[C@H]1CCOc2cc(Cl)ccc21 [Example 278] | < 5
Cc1c(-c2ccnnc2)n[nH]c1NC(=O)C[C@@H]1CCOc2cc(Cl)ccc21 [Example 279] | < 5
O=C(Nc1nnc(-c2ccncc2)[nH]1)[C@H]1C[C@H](c2ccc(Cl)nc2)C1 [Example 280] | < 5
N#Cc1c(-c2ccncc2F)n[nH]c1NC(=O)CCc1ccc(Cl)nc1 [Example 281] | < 5
[2H]C([2H])([2H])c1c(-c2ccncc2)n[nH]c1NC(=O)CCc1ccc(Cl)nc1 [Example 282] | < 5
O=C(CC1CNc2cc(Cl)ccc21)Nc1nnc(-c2ccncc2)[nH]1 (centres unmarked) [Example 283] | < 5
COCc1c(-c2ccncc2)n[nH]c1NC(=O)CCc1ccc(Cl)cc1 [Example 284] | < 5
CNC(=O)Cc1c(-c2ccncc2)n[nH]c1NC(=O)CCc1ccc(Cl)nc1 [Example 285] | < 5
NC(=O)c1cnccc1-c1nnc(NC(=O)CCc2ccc(Cl)cc2)[nH]1 [Example 286] | < 5
Cc1c(-c2ccncc2)nn(C)c1NC(=O)CCc1ccc(Cl)nc1 [Example 287] | < 5
Cc1c(-c2ccncc2)n[nH]c1N(C)C(=O)CCc1ccc(Cl)nc1 [Example 288] | 5 to 15
Cc1c(-c2ccncc2)n[nH]c1NC(=O)[C@H](O)Cc1ccc(Cl)cc1 [Example 289] | < 5
Cc1c(-c2ccncc2)n[nH]c1NC(=O)[C@@H](O)Cc1ccc(Cl)cc1 [Example 290] | < 5
Cc1c(-c2ccncc2)n[nH]c1NC(=O)CSc1ccc(Cl)cc1 [Example 292] | < 5
Cc1c(-c2ccncc2)n[nH]c1NC(=O)CS(=O)(=O)c1ccc(Cl)cc1 [Example 293] | < 5
Nc1cnccc1-c1cc(NC(=O)CCc2ccc(Cl)nc2)[nH]n1 [Example 294] | < 5
O=C(Cc1coc2cc(Cl)ccc12)Nc1nnc(-c2ccncc2)[nH]1 [Example 295] | < 5
O=C(Nc1nnc(-c2ccncc2)[nH]1)N1CCc2cc(Cl)ncc2C1 [Example 296] | < 5
COCc1c(-c2ccncc2)n[nH]c1NC(=O)CCc1ccc(Cl)nc1 [Example 297] | < 5
O=C(CCc1ccc(Cl)cc1)Nc1cc(-c2ccncc2C2CC2)n[nH]1 [Example 298] | < 5

Structure (SMILES) | IC50 [µM]
O=C(CCc1ccc(Cl)cc1)Nc1cc(-c2ccncc2-c2ccccc2)n[nH]1 [Example 299] | < 5
O=C(CCc1ccc(Cl)cc1)Nc1cc(-c2c(F)cncc2F)n[nH]1 [Example 300] | < 5
CN(C)C(=O)Cc1c(-c2ccncc2)n[nH]c1NC(=O)CCc1ccc(Cl)cc1 [Example 301] | < 5
NC(=O)Cc1c(-c2ccncc2)n[nH]c1NC(=O)CCc1ccc(Cl)cc1 [Example 302] | < 5
CC1(c2c(-c3ccncc3)n[nH]c2NC(=O)CCc2ccc(Cl)cc2)CC1 [Example 303] | < 5
N#Cc1c(-c2ccnnc2)n[nH]c1NC(=O)CCc1ccc(Cl)nc1 [Example 304] | < 5
Cc1ccc(CCC(=O)Nc2[nH]nc(-c3ccncc3)c2C)cn1 [Example 306] | < 5
Cc1ccc(CCC(=O)Nc2[nH]nc(-c3ccncc3F)c2C)cn1 [Example 307] | < 5
Cc1c(-c2ccncc2F)n[nH]c1NC(=O)CCc1ccc(Cl)s1 [Example 308] | < 5
NC(=O)Cc1c(-c2ccncc2)n[nH]c1NC(=O)CCc1ccc(Cl)nc1 [Example 309] | < 5
CC1(c2c(-c3ccncc3)n[nH]c2NC(=O)CCc2ccc(Cl)nc2)CC1 [Example 310] | < 5
CC1(c2c(-c3ccnnc3)n[nH]c2NC(=O)CCc2ccc(Cl)cc2)CC1 [Example 311] | < 5
N#Cc1c(-c2ccnnc2)n[nH]c1NC(=O)CCc1ccc(Cl)cc1 [Example 312] | < 5
Cc1c(-c2ccncc2F)n[nH]c1NC(=O)CCc1ccc(Cl)cc1 [Example 313] | < 5
Cc1c(-c2ccncc2F)n[nH]c1NC(=O)CCc1ccc(Cl)nc1 [Example 314] | < 5
O=C(CCc1ccc(Cl)cc1)Nc1nnc(-c2c(F)cncc2F)[nH]1 [Example 315] | 5 to 15
CN(C)C(=O)Cc1c(-c2ccncc2)n[nH]c1NC(=O)CCc1ccc(Cl)nc1 [Example 316] | < 5
Cc1c(-c2ccncc2)n[nH]c1NC(CCc1ccc(Cl)cc1)C(F)(F)F (centres unmarked) [Example 317] | 5 to 15
Cc1c(-c2ccncc2F)n[nH]c1NC(=O)[C@H]1C[C@H](c2ccc(Cl)cc2)C1 [Example 318] | < 5
Cc1c(-c2ccncc2F)n[nH]c1NC(=O)CCc1ccc(Cl)c(F)c1 [Example 320] | < 5
